The text below walks through data of article PMC11387175, “Model informed dose regimen optimizing in development of leritrelvir for the treatment of mild or moderate COVID-19” (Frontiers in Pharmacology, 2024).

In test [1] the test system is Omicron XBB.1.9.1 variant. Set-up: method as in Chen et al., 2024. The note with it: ref Chen et al., 2024, read-out: concentration for 90% of maximal effect (EC90); cited from earlier work.
The test system of the next test is Omicron variant. Nature of the test: Target concentration needed to achieve EC90. Format: cell-based, SARS-CoV-2.

As to `O=C(NC1CCCC1)C(=O)[C@H](C[C@@H]1CCNC1=O)NC(=O)[C@@H]1[C@H]2CCC[C@H]2CN1C(=O)[C@@H](NC(=O)C(F)(F)F)C1CCCCC1` [leritrelvir], in test [1], the EC90 is 415 nM. In the test with Omicron variant, the “concentration needed to achieve EC90” value was found to be 0.2097 µg/mL.
